The text below walks through data of patent US8686050B2, “Diglycidic ether derivative therapeutics and methods for their use” (British Columbia Cancer Agency Branch, priority 2008, dated 2014).

“And” between values parts separate entries of the source, which are not always exact repeats. Identical values can stand only once.

The target of experiment [1] is T1, Gal4 DBD-AR1-558 (AR NTD) (Homo sapiens, UniProt P10275).
T1 construct: cloning amino acids 1-558 of the human AR NTD into the C-terminus of Gal4 DBD; expressed in transfected cells; host or cells: LNCaP
T1 sequence (P10275 1-558): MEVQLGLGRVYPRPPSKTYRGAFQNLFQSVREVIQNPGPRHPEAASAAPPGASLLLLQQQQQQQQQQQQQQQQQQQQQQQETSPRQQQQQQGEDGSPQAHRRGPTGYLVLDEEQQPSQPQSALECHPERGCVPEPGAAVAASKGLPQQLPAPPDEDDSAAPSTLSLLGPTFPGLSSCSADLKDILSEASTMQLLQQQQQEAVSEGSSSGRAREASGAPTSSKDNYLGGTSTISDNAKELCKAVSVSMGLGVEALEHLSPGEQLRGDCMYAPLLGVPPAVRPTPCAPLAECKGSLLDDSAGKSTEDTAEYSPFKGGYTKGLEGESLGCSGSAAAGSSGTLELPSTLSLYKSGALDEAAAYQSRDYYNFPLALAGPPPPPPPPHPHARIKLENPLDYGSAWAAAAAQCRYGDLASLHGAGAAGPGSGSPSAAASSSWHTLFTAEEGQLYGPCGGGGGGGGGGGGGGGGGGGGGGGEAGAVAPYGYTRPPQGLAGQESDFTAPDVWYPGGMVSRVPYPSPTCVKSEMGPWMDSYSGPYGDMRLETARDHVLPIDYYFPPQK
In words: Transactivation of the AR NTD (Gal4 DBD-AR1-558 with 5xGal4UAS-luciferase) in LNCaP cells. Format: cell-based. As to conditions: for inhibition at 20 µM: read-out: inhibition of Fsk activation of Ga14ARN. The text has this: These fractions were next tested for their ability to inhibit the AR NTD. […] Extracts identified above were screened by such assays as well as some compounds purchased from commercial suppliers.
Expression vectors for these chimeric proteins were cotransfected into LNCaP cells with a reporter gene containing the Gal4-binding site as cis-acting elements (p5×Gal4UAS-TATA-luciferase).

The target in experiment [2] is T2, AR (Homo sapiens, UniProt P10275, T878A).
T2 sequence (P10275 1-920 T878A): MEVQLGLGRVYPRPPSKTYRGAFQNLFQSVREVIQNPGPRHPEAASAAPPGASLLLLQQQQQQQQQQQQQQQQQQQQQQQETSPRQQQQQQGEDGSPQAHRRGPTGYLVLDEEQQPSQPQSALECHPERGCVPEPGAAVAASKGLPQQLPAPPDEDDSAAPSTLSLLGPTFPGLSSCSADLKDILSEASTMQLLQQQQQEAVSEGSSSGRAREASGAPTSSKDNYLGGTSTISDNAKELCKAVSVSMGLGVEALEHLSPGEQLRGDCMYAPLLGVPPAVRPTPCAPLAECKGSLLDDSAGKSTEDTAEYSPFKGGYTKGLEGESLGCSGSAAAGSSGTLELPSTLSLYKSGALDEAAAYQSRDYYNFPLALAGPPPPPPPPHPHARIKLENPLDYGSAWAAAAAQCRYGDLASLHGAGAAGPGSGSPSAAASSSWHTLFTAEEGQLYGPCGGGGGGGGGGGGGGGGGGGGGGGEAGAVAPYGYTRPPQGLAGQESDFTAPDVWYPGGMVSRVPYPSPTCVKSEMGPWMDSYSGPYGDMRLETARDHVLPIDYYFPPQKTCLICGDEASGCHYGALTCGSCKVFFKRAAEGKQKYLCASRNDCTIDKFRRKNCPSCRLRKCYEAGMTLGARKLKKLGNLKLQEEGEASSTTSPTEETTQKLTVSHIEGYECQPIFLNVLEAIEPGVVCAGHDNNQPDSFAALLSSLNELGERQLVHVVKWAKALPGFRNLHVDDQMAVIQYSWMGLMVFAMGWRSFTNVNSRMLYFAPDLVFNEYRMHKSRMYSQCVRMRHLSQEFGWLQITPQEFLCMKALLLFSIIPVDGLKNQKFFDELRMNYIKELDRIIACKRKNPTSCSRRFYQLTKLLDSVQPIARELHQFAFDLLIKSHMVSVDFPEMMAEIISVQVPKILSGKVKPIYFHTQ
As to the kind of experiment: PSA (6.1 kb)-luciferase (p6.1luc) reporter in LNCaP cells. Also noted: LNCaP cells express endogenous AR and secrete prostate-specific antigen (PSA); endogenous in cells; host or cells: LNCaP. Format: cell-based. The text has this:
LNCaP cells were employed initially for all experiments because they are well-differentiated human prostate cancer cells in which ligand-independent activation of the AR by FSK has been characterized (Nazareth et al 1996 J. Biol. Chem. 271, 19900-19907; and Sadar 1999 J. Biol. Chem. 274, 7777-7783). LNCaP cells express endogenous AR and secrete prostate-specific antigen (PSA) (Horoszewicz et al 1983 Cancer Res. 43, 1809-1818). LNCaP cells can be grown either as monolayers in cell culture or as tumors in the well-characterized xenograft model that progresses to androgen independence in castrated hosts (Sato et al 1996 J. Steroid Biochem. Mol. Biol. 58, 139-146; Gleave et al 1991 Cancer Res. 51, 3753-3761; Sato et al 1997 Cancer Res. 57, 1584-1589; and Sadar et al 2002 Mol. Cancer. Ther. 1(8), 629-637). […] Small molecules that specifically target the AR-NTD should have no effect on PC3 cells. This means that they should not alter the proliferation of PC3 cells if they specifically block the AR to mediate their inhibitory effects. R1881 was employed since it is stable and avoids problems associated with the labile physiological ligand dihydrotestosterone (DHT). Reporter specificity may be determined using several alternative reporter gene constructs. Some well characterized ARE-driven reporter gene constructs that have been used extensively are the PSA (6.1 kb) enhance/promoter which contains several AREs and is highly inducible by androgens as well as by FSK (Ueda et al 2002 A J. Biol. Chem. 277, 7076-7085) and the ARR3-thymidine kinase (tk)-luciferase, which is an artificial reporter construct that contains three tandem repeats of the rat probasin ARE1 and ARE2 regions upstream of a luciferase reporter (Snoek et al 1996 J. Steroid Biochem. Mol. Biol. 59, 243-250).
To ensure that the inhibitory effects of PNG 01-185 extract on endogenous PSA protein was at the transcriptional level, reporter gene constructs were also examined. Activation of the endogenous AR was measured in LNCaP human prostate cancer cells by measuring androgen-responsive reporters that contain androgen response elements (AREs) such as the PSA-luciferase reporter gene construct or the ARR3-luciferase reporter. LNCaP cells maintained as monolayers were transfected with PSA-luciferase and were used to screen the crude extracts prepared from marine sponges as well as some selected commercial compounds. […] R1881 (1 nM) was used to mediate ligand-dependent activation of the AR and concentrations of FSK (50 μM) were used to mediate ligand-independent activation of the AR.

Experiment [3] addresses T2, AR. As to the kind of experiment: ARR3-luciferase reporter in LNCaP cells. Format: cell-based. Details: LNCaP cells express endogenous AR and secrete prostate-specific antigen (PSA); endogenous in cells; host or cells: LNCaP. The note with it: read-out: inhibition of R1881 activation of ARR31uc. From the text:
LNCaP cells were employed initially for all experiments because they are well-differentiated human prostate cancer cells in which ligand-independent activation of the AR by FSK has been characterized (Nazareth et al 1996 J. Biol. Chem. 271, 19900-19907; and Sadar 1999 J. Biol. Chem. 274, 7777-7783). LNCaP cells express endogenous AR and secrete prostate-specific antigen (PSA) (Horoszewicz et al 1983 Cancer Res. 43, 1809-1818). LNCaP cells can be grown either as monolayers in cell culture or as tumors in the well-characterized xenograft model that progresses to androgen independence in castrated hosts (Sato et al 1996 J. Steroid Biochem. Mol. Biol. 58, 139-146; Gleave et al 1991 Cancer Res. 51, 3753-3761; Sato et al 1997 Cancer Res. 57, 1584-1589; and Sadar et al 2002 Mol. Cancer. Ther. 1(8), 629-637). […] Reporter specificity may be determined using several alternative reporter gene constructs. […]
To ensure that the inhibitory effects of PNG 01-185 extract on endogenous PSA protein was at the transcriptional level, reporter gene constructs were also examined. Activation of the endogenous AR was measured in LNCaP human prostate cancer cells by measuring androgen-responsive reporters that contain androgen response elements (AREs) such as the PSA-luciferase reporter gene construct or the ARR3-luciferase reporter. […]
(In general: A reporter such as luciferase makes a cellular process visible.)

A further experiment has as its system LNCaP xenografts. As to the kind of experiment: LNCaP subcutaneous xenografts in castrated mice. Format: in vivo, NOD-SCID male mice. As to conditions: castrated mice. Here is the method: Six to eight-week old male athymic SCID mice were inoculated subcutaneously in the flank region via a 27-gauge needle with a 150 μl suspension of LNCaP or PC3 human prostate cancer cells (1×10^6 cells). The inoculations took place while the animal was under isofluorane anaesthesia. The tumor take rate is approximately 75%. Mice bearing tumors of 100 mm^3 were randomly assigned to treatment groups. Castration was performed as described below. Tumor volume (formula: L×W×H×0.5236) was measured in mice bearing LNCaP subcutaneous tumors that became palpable or visible and at least 40 mm^3. The animals were monitored daily and tumors were measured every 5 days.

The mark [4] stands for this setting: LNCaP, at 12.5 μM, read-out: inhibition of R1881 activation of p6.1luc.

As to `CC(C)(c1ccc(OCC(O)CO)cc1)c1ccc(OCC(O)CI)cc1` (centres unmarked), the inhibition at 20 µM in experiment [1] (LNCaP) is 7%; at AR [2] (LNCaP, at 20 μM, read-out: inhibition of R1881 activation of p6.1luc), 33%. Moreover, on AR [2] (setting [4]), the inhibition at 12.5 µM is 20%.
Take `CC(C)(c1ccc(OCC(O)CO)cc1)c1ccc(OCC(O)CO)cc1` (centres unmarked): the inhibition at 50 µM at AR [3] worked out at 10%.
As to `CC(C)(c1ccc(OCC(O)CCl)cc1)c1ccc(OCC(O)CCl)cc1` (racemic) [BADGE.2HCl, Racemic BADGE×2HCl], the “LNCaP tumor volume at start of treatment, intratumoral” value in the experiment with LNCaP xenografts (I.T. delivery) is given as 109.6±17.4 mm^3. In addition, in the experiment on LNCaP xenografts (I.T. every 5 days, 20 mg/kg body weight), the “size of LNCaP xenograft tumors, intratumoral injection” value is reported as “reduced the size of the tumors”. The “LNCaP tumor volume at the duration (end) of the experiment, intratumoral” value in the experiment on LNCaP xenografts (i.t. every 5 days, five doses) came out at 79.0±63.6 mm^3.
Take `CC(C)(c1ccc(OCC(O)CCl)cc1)c1ccc(OCC(O)CCl)cc1` (centres unmarked) [drawing 123]: the inhibition at 12.5 µM turned out to be 79% in experiment [1] (LNCaP, read-out: inhibition of Fsk activation of Ga14ARN, at 12.5 μM) and 69% at AR [2] (setting [4]). The “inhibition of R1881 activation of p6.1luc” value (“inhibition … of p6.1luc” below) on AR [2] (at 12.5 μM) worked out at 63%.
On to `CC(C)(c1ccc(OCC(O)CCl)cc1)c1ccc(OCC(O)CCl)cc1` (centres unmarked) [drawing 124], for which the “inhibition of Fsk activation of Ga14ARN” value in experiment [1] (at 12.5 μM) turned out to be 88%. Also, the “inhibition … of p6.1luc” value is listed as 55% at AR [2] (at 12.5 μM) and 34.8% against AR [2] (concentration not given).
On to `CC(C)(c1ccc(OCC(O)CI)cc1)c1ccc(OCC(O)CI)cc1` (centres unmarked) [drawing 125], for which, in experiment [1] (LNCaP), the inhibition at 20 µM amounted to 33%. For the same compound, the inhibition at 12.5 µM on AR [2] (setting [4]) was determined as 35%. For the same compound, the “inhibition … of p6.1luc” value against AR [2] (at 12.5 μM) was 33%.
As for `CC(C)(c1ccc(OCC(O)CI)cc1)c1ccc(OCC(O)CI)cc1` (centres unmarked) [drawing 126], on AR [2] (at 12.5 μM), the “inhibition … of p6.1luc” value was 42% and 29%.

By inhibition is commonly meant the drop in the measured response relative to a control, in per cent.
